Biological target: T1, cPLA2 (Homo sapiens, UniProt P47712)
T1 sequence (P47712 1-749): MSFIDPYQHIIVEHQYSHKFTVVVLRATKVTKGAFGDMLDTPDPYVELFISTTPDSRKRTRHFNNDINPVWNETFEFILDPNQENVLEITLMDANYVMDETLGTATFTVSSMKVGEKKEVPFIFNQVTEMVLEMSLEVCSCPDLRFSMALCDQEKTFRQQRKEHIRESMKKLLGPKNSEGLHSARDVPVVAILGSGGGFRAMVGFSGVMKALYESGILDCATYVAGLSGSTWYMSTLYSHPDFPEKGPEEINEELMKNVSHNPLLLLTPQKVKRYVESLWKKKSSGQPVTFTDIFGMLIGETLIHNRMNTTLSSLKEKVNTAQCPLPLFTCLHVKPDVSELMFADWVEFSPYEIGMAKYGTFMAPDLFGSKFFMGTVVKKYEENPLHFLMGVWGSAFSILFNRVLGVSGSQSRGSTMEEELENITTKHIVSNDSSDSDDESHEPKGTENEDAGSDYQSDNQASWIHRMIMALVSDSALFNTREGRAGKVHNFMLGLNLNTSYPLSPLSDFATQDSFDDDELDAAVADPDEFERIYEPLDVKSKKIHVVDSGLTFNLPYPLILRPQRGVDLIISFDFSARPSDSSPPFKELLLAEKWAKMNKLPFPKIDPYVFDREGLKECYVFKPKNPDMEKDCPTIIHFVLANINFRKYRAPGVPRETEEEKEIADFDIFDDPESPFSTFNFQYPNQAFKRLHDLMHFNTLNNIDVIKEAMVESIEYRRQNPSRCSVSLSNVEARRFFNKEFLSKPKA
Assay: Coumarine assay (cPLA2 inhibition)
Type: biochemical
Conditions: 7-hydroxycoumarinyl 6-heptenoate as monomeric substrate, fluorescence 360/460 nm; read-out: Coumarin IC50
Description: 7-hydroxycoumarinyl 6-heptenoate was used as a monomeric substrate for cPLA2 as reported previously (Huang, Z. et al., 1994, Nalytical Biochemistry 222, 110-115). Inhibitors were mixed with 200 μL assay buffer (80 mM Heped, pH 7.5, l mM EDTA) containing 60 μM 7-hydroxycoumarinyl 6-heptenoate. The reaction was initiated by adding 4 μg cPLA2 in 50 μL assay buffer. Hydrolysis of the 7-hydroxycoumarinyl 6-heptenoate ester was monitored in a fluorometer by exciting at 360 nm and monitoring emission at 460 nm. Enzyme activity is proportional to the increase in emission at 460 nm per minute. In the presence of a cPLA2 inhibitor, the rate of increase is less.

IC50 | SMILES
1200 nM | Cc1c(C(c2ccccc2)c2ccccc2)c2cc(Cl)ccc2n1CCOc1ccc(CCC(=O)O)cc1 [Example 90, 3-{4-[2-(3-benzhydryl-5-chloro-2-methyl-1H-indol-1-yl)ethoxy]phenyl}propanoic acid]
2500 nM | Cc1c(C(c2ccccc2)c2ccccc2)c2ccccc2n1CCOc1ccc(C(=O)O)cc1 [Example 93, 4-[2-(3-benzhydryl-2-methyl-1H-indol-1-yl)ethoxy]benzoic acid]
1100 nM | Cc1c(C(c2ccccc2)c2ccccc2)c2cc(Cl)ccc2n1C/C=C/COc1ccc(C(=O)O)cc1 [Example 88, 4-{[(E)-4-(3-benzhydryl-5-chloro-2-methyl-1H-indol-1-yl)-2-butenyl]oxy}benzoic acid]
2500 nM | Cc1c(C(c2ccccc2)c2ccccc2)c2cc(Cl)ccc2n1CCOc1ccc(C(=O)O)cc1 [Example 89, 4-[2-(3benzhydryl-5-chloro-2-methyl-1H-indol-1-yl)ethoxy]benzoic acid]
4000 nM | O=C(O)CCc1ccc(S(=O)(=O)CCn2cc(C(c3ccccc3)c3ccccc3)c3ccc(Cl)cc32)cc1 [Example 91, 3(4-{[2-(3-benzhydryl-6-chloro-1H-indol-1-yl)ethyl]sulfonyl}phenyl)propanoic acid]
9000 nM | O=C(O)c1ccc(S(=O)(=O)CCn2cc(C(c3ccccc3)c3ccccc3)c3ccc(Cl)cc32)cc1 [Example 92, 4-{[2-(3-benzhydryl-6-chloro-1H-indol-1-yl)ethyl]sulfonyl}benzoic acid]
